Measurements taken from ChEMBL document CHEMBL4184336, “Structure-Guided Modification of Heterocyclic Antagonists of the P2Y14 Receptor” (J Med Chem, 2018).

Experiments:
[1] = target: Voltage-gated inwardly rectifying potassium channel KCNH2 (Homo sapiens, UniProt Q12809); assay: Inhibition of human ERG
[2] = Aqueous solubility of the compound; format: physicochemical; conditions: buffer
Cytochrome P450 2C9 = Cytochrome P450 2C9 (Homo sapiens, UniProt P11712); assay: Inhibition of CYP2C9 (unknown origin); format: ADME
Sequence of Cytochrome P450 2C9 (P11712 whole entry): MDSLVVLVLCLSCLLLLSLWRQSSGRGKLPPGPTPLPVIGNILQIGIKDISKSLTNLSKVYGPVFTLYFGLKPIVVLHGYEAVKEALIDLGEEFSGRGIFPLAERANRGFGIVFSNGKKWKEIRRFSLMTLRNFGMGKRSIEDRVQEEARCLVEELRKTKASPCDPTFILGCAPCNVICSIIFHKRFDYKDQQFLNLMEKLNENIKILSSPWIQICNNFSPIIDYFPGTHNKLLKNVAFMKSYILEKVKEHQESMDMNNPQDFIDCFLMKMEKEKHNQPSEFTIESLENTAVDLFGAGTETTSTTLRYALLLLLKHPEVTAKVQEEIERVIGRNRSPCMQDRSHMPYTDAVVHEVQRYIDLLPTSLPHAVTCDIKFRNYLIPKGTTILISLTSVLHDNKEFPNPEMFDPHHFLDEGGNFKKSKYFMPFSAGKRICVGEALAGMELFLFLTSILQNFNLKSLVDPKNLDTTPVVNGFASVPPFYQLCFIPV

[3] = Metabolic stability in human plasma assessed as parent compound remaining after 120 mins; format: ADME, cell-free; conditions: read-out: Stability
Cytochrome P450 2C19 = Cytochrome P450 2C19 (Homo sapiens, UniProt P33261); assay: Inhibition of CYP2C19 (unknown origin); format: ADME
HepG2 = assay: Cytotoxicity against human HepG2 cells; format: cell-based
Cytochrome P450 3A4 = Cytochrome P450 3A4 (Homo sapiens, UniProt P08684); assay: Inhibition of CYP3A4 (unknown origin); format: ADME
[4] = Metabolic stability in mouse plasma assessed as parent compound remaining after 120 mins; format: ADME, cell-free; conditions: read-out: Stability
P2Y purinoceptor 14 = target: T1, P2Y purinoceptor 14 (Homo sapiens, UniProt Q15391)
T1 sequence (Q15391 whole entry): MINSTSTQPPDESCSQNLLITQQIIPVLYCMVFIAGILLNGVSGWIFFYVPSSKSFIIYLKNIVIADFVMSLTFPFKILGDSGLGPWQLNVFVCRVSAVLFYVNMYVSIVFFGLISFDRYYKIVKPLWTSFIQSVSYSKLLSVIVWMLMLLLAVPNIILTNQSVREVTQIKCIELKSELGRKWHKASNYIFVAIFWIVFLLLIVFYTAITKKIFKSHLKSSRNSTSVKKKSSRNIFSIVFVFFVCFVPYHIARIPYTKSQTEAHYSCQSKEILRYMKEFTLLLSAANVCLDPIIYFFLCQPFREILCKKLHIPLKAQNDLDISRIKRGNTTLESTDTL
Description: Displacement of MRS4174 from human P2Y14R expressed in CHO cells preincubated for 30 mins followed by MRS4174 addition measured after 30 mins by flow cytometric method

[5] = Half life in Sprague-Dawley rat plasma at 0.5 mg/kg, iv; format: ADME, organism-based
[6] = target: Delta-type opioid receptor (Homo sapiens, UniProt P41143); assay: Displacement of [3H]-DADLE from human delta opioid receptor expressed in HEK293 cells after 90 mins by scintillation counting method; format: cell-based
Sequence of Delta-type opioid receptor (P41143 whole entry): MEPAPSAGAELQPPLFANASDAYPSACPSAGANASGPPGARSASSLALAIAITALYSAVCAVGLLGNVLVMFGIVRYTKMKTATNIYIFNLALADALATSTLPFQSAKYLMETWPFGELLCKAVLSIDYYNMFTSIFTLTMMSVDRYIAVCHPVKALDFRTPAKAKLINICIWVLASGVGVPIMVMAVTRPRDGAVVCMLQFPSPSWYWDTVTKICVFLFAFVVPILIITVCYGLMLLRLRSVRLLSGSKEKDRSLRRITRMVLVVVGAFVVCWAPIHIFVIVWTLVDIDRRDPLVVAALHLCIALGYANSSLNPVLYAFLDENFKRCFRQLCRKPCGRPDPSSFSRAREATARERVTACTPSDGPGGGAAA

Cytochrome P450 1A2 = Cytochrome P450 1A2 (Homo sapiens, UniProt P05177); assay: Inhibition of CYP1A2 (unknown origin); format: ADME
Cytochrome P450 2D6 = Cytochrome P450 2D6 (Homo sapiens, UniProt P10635); assay: Inhibition of CYP2D6 (unknown origin); format: ADME
[7] = Metabolic stability in rat plasma assessed as parent compound remaining after 120 mins; format: ADME, cell-free; conditions: read-out: Stability
[8] = target: 5-hydroxytryptamine receptor 1A (Homo sapiens, UniProt P08908); assay: Displacement of [3H]-Way100635 from human 5-HT1A receptor expressed in CHO cell membranes after 90 mins by scintillation counting method
Sequence of 5-hydroxytryptamine receptor 1A (P08908 whole entry): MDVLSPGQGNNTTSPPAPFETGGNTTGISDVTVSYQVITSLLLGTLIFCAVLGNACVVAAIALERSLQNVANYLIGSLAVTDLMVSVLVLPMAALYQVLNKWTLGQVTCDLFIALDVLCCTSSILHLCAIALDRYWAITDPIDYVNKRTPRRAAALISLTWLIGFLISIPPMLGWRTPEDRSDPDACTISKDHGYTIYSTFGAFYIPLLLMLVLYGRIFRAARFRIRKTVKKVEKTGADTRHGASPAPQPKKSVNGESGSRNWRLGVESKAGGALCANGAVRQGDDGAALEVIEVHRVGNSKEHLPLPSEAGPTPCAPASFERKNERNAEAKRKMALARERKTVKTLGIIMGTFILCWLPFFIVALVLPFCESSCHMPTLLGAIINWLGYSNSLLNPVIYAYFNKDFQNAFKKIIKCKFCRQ

[9] = target: 5-hydroxytryptamine receptor 2A (Homo sapiens, UniProt P28223); assay: Displacement of [3H]-Ketanserin from human 5-HT2A receptor expressed in HEK293T cell membranes after 90 mins by scintillation counting method
Sequence of 5-hydroxytryptamine receptor 2A (P28223 whole entry): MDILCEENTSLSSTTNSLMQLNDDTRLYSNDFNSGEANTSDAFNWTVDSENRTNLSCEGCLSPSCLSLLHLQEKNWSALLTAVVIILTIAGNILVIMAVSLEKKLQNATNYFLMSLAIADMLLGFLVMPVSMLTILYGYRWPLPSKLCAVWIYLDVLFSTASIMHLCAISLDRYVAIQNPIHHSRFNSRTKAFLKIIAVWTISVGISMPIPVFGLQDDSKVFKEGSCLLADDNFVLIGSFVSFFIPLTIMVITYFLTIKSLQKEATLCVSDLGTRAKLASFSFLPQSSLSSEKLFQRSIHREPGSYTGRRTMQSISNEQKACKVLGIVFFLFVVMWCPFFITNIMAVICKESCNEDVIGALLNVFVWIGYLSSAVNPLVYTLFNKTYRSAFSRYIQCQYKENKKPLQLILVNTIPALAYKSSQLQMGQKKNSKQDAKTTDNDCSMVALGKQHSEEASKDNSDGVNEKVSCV

[10] = target: Alpha-2B adrenergic receptor (Homo sapiens, UniProt P18089); assay: Displacement of [3H]Rauwolscine from human adrenergic alpha2B receptor expressed in HEK293T cell membranes after 90 mins by scintillation counting method
Sequence of Alpha-2B adrenergic receptor (P18089 whole entry): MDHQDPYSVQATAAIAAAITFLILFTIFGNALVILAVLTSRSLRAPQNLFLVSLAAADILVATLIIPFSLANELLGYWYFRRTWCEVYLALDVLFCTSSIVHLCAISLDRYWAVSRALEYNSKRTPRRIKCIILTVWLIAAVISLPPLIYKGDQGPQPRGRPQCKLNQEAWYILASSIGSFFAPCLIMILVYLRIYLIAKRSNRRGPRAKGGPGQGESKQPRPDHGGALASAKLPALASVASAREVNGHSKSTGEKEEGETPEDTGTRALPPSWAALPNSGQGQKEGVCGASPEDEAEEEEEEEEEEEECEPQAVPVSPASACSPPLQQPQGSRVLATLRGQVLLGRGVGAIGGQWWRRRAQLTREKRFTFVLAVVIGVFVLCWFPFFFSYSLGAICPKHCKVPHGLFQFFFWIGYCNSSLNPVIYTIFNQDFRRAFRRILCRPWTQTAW

[11] = target: Sodium-dependent dopamine transporter (Homo sapiens, UniProt Q01959); assay: Displacement of [3H]-WIN35428 from human DAT after 90 mins by scintillation counting method
Sequence of Sodium-dependent dopamine transporter (Q01959 whole entry): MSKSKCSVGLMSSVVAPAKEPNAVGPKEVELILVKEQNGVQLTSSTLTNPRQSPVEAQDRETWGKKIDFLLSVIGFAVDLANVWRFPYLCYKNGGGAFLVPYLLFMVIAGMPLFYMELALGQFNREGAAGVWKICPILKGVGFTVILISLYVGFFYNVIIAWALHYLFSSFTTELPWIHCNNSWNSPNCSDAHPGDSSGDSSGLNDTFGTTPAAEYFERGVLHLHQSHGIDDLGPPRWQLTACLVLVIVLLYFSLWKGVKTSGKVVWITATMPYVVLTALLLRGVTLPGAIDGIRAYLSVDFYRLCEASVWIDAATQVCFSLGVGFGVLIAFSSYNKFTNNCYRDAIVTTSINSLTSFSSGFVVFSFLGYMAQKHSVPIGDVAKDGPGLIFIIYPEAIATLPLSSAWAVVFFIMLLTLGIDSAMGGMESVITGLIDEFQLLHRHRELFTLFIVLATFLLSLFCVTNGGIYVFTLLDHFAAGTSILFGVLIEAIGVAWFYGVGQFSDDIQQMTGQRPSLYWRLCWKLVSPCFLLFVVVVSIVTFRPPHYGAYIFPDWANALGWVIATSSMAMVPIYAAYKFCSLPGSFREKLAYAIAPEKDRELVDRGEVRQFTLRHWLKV

Histamine H2 receptor = Histamine H2 receptor (Homo sapiens, UniProt P25021); assay: Displacement of [125I]-Iodoaminopotentidine from human histamine H2 receptor expressed in HEK293T cell membranes after 90 mins by scintillation counting method
Sequence of Histamine H2 receptor (P25021 whole entry): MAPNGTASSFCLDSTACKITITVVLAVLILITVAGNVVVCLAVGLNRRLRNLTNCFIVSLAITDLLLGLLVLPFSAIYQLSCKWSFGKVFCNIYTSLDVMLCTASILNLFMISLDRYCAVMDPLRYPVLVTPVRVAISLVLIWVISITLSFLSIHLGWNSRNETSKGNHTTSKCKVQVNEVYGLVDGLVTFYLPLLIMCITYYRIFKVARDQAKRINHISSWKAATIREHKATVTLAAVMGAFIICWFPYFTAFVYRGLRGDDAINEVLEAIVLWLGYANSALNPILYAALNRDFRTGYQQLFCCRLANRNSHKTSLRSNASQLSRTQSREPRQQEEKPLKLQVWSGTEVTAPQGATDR

[12] = target: Alpha-1B adrenergic receptor (Homo sapiens, UniProt P35368); assay: Displacement of [3H]-Prazosin from human adrenergic alpha1B receptor after 90 mins by scintillation counting method
Sequence of Alpha-1B adrenergic receptor (P35368 whole entry): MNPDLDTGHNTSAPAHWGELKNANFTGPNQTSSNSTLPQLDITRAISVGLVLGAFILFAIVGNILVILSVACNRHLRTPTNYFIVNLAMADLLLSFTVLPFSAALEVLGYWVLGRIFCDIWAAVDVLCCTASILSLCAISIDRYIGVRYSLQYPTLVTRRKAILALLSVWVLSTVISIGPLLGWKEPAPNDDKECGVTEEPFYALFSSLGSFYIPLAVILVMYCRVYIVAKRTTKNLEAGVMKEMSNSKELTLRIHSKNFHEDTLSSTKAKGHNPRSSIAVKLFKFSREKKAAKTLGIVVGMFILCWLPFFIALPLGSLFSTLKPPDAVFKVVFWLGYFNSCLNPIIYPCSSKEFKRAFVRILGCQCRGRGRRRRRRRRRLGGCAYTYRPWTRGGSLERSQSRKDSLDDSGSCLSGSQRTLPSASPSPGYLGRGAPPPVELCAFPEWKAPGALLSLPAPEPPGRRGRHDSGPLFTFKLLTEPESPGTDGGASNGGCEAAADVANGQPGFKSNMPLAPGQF

[13] = target: Alpha-1D adrenergic receptor (Homo sapiens, UniProt P25100); assay: Displacement of [3H]-Prazosin from human adrenergic alpha1D receptor after 90 mins by scintillation counting method
D(1A) dopamine receptor = D(1A) dopamine receptor (Homo sapiens, UniProt P21728); assay: Displacement of [3H]SCH23390 from human dopamine D1 receptor expressed in HEK293T cell membranes after 90 mins by scintillation counting method
[14] = target: Alpha-1A adrenergic receptor (Homo sapiens, UniProt P35348); assay: Displacement of [3H]-Prazosin from human adrenergic alpha1A receptor after 90 mins by scintillation counting method
D(2) dopamine receptor = D(2) dopamine receptor (Homo sapiens, UniProt P14416); assay: Displacement of [3H]N-methylspiperone from human dopamine D2 receptor expressed in HEK293T cell membranes after 90 mins by scintillation counting method
D(3) dopamine receptor = D(3) dopamine receptor (Homo sapiens, UniProt P35462); assay: Displacement of [3H]N-methylspiperone from human dopamine D3 receptor expressed in HEK293T cell membranes after 90 mins by scintillation counting method
[15] = target: Sigma intracellular receptor 2 (Homo sapiens, UniProt Q5BJF2); assay: Displacement of [3H]-DTG from human sigma2 receptor expressed in HEK293T cell membranes after 90 mins by scintillation counting method
[16] = target: Sodium-dependent noradrenaline transporter (Homo sapiens, UniProt P23975); assay: Displacement of [3H]-Nisoxetine from human NET expressed in HEK293 cell membranes after 90 mins by scintillation counting method
Sequence of Sodium-dependent noradrenaline transporter (P23975 whole entry): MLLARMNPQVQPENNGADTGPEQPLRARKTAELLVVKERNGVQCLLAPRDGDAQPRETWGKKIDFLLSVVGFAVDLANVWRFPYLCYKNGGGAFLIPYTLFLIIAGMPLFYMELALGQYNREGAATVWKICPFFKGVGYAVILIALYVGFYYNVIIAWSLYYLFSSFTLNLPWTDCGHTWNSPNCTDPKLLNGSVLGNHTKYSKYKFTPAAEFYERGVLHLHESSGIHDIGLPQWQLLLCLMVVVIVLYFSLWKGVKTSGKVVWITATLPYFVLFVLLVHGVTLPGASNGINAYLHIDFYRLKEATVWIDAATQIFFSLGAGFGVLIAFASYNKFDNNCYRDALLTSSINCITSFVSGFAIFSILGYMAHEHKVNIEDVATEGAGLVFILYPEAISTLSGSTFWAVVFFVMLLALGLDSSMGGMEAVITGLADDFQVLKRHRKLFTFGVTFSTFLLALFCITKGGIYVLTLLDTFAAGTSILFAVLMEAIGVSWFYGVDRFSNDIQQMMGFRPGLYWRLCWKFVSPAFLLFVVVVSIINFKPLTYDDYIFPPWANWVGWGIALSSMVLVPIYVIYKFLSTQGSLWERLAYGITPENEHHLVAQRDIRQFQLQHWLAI

[17] = target: Alpha-2A adrenergic receptor (Homo sapiens, UniProt P08913); assay: Displacement of [3H]Rauwolscine from human adrenergic alpha2A receptor expressed in MDCK cell membranes after 90 mins by scintillation counting method
Sequence of Alpha-2A adrenergic receptor (P08913 whole entry): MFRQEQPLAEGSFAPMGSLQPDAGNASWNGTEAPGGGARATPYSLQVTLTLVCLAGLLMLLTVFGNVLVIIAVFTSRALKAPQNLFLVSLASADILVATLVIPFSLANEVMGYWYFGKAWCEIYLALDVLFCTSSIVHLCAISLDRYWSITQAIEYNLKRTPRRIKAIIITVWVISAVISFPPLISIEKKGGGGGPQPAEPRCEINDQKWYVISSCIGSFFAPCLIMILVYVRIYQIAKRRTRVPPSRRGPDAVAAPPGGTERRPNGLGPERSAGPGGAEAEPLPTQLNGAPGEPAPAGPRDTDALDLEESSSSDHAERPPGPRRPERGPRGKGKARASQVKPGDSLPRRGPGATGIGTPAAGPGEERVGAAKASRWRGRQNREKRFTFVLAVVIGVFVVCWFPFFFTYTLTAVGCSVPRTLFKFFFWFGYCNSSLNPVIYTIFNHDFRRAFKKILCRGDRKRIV

D(1B) dopamine receptor = D(1B) dopamine receptor (Homo sapiens, UniProt P21918); assay: Displacement of [3H]SCH23390 from human dopamine D5 receptor expressed in HEK293T cell membranes after 90 mins by scintillation counting method
[18] = target: Kappa-type opioid receptor (Homo sapiens, UniProt P41145); assay: Displacement of [3H]-U69593 from human KOR expressed in HEK293 cell membranes after 90 mins by scintillation counting method
[19] = target: Sodium-dependent serotonin transporter (Homo sapiens, UniProt P31645); assay: Displacement of [3H]-Citalopram from human SERT expressed in HEK293 cell membranes after 90 mins by scintillation counting method
Translocator protein = Translocator protein (Rattus norvegicus, UniProt P16257); assay: Displacement of [3H]-PK11195 from rat brain TSPO after 90 mins by scintillation counting method
Sequence of Translocator protein (P16257 whole entry, looked up): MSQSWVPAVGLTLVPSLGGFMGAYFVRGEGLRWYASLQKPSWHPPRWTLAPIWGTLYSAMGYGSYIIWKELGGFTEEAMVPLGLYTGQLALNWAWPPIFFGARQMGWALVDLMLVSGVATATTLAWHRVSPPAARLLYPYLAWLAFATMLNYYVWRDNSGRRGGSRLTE

[20] = target: 5-hydroxytryptamine receptor 6 (Homo sapiens, UniProt P50406); assay: Displacement of [3H]-LSD from human 5-HT6 receptor expressed in HEK293 cell membranes after 90 mins by scintillation counting method
[21] = target: Beta-3 adrenergic receptor (Homo sapiens, UniProt P13945); assay: Displacement of [3H]-CGP12177 from human adrenergic beta-3 receptor expressed in HEK Flp-In cell membranes after 90 mins by scintillation counting method

Compound: CCN(CC)CC.NC(=O)c1ccc(-c2cc(C(=O)O)cc(-n3cc(-c4ccc(C(F)(F)F)cc4)nn3)c2)cc1
- IC50 [1]: 0.166 µM
- solubility [2]: 138 µg/mL
- IC50 (Cytochrome P450 2C9): ≥ 30 µM
- remaining at 2 h [3]: 94 to 100%
- IC50 (Cytochrome P450 2C19): ≥ 30 µM
- CC50 (HepG2): > 30 µM
- IC50 (Cytochrome P450 3A4): ≥ 30 µM
- remaining at 2 h [4]: 94 to 100%
- IC50 (P2Y purinoceptor 14): 0.269 µM
- half-life [5]: 12 min
- Ki [6]: 1.47 µM
- IC50 (Cytochrome P450 1A2): ≥ 30 µM
- IC50 (Cytochrome P450 2D6): ≥ 30 µM
- remaining at 2 h [7]: 94 to 100%

Compound: NC(=O)c1ccc(-c2cc(C(=O)O)cc(-n3cc(-c4ccc(C(F)(F)F)cc4)nn3)c2)nc1
- IC50 (P2Y purinoceptor 14): 0.516 µM

Compound: CC(C)(C)OC(=O)NCCCNC(=O)c1ccc(-c2cc(C(=O)O)cc(-n3cc(-c4ccc(C(F)(F)F)cc4)nn3)c2)s1
- IC50 (P2Y purinoceptor 14): 2.28 µM

Compound: NCCCNS(=O)(=O)c1ccc(-c2cc(C(=O)O)cc(-n3cc(-c4ccc(C(F)(F)F)cc4)nn3)c2)s1
- IC50 (P2Y purinoceptor 14): 0.756 µM

Compound: C#CCCCCN1CCC(c2ccc(-c3cc(C(=O)O)cc4cc(-c5ccc(C(F)(F)F)cc5)ccc34)cc2)CC1
- IC50 (P2Y purinoceptor 14): 0.763 µM

Compound: CCNC(=O)c1ccc(-c2cc(C(=O)O)cc(-n3cc(-c4ccc(C(F)(F)F)cc4)nn3)c2)cc1
- IC50 (P2Y purinoceptor 14): 0.899 µM

Compound: NCCCNC(=O)c1ccc(-c2cc(-c3nnn[nH]3)cc(-n3cc(-c4ccc(C(F)(F)F)cc4)nn3)c2)s1
- IC50 (P2Y purinoceptor 14): 1.19 µM

Compound: NC(=O)c1cnc(-c2cc(C(=O)O)cc(-n3cc(-c4ccc(C(F)(F)F)cc4)nn3)c2)cn1
- IC50 (P2Y purinoceptor 14): 0.566 µM

Compound: NS(=O)(=O)c1ccc(-c2cc(C(=O)O)cc(-n3cc(-c4ccc(C(F)(F)F)cc4)nn3)c2)s1
- IC50 (P2Y purinoceptor 14): 6.44 µM

Compound: O=C(O)c1cc(-c2ccc(S(=O)(=O)NCCCCO)s2)cc(-n2cc(-c3ccc(C(F)(F)F)cc3)nn2)c1
- IC50 (P2Y purinoceptor 14): 8.42 µM

Compound: FC(F)(F)c1ccc(-c2cn(-c3cc(Br)cc(-c4nnn[nH]4)c3)nn2)cc1
- IC50 (P2Y purinoceptor 14): 33.1 µM

Compound: O=C(O)c1cc(-c2ccc(C(=O)N3CCNCC3)s2)cc(-n2cc(-c3ccc(C(F)(F)F)cc3)nn2)c1
- IC50 (P2Y purinoceptor 14): 12.6 µM

Compound: CC(C)(C)OC(=O)NCCCNS(=O)(=O)c1ccc(-c2cc(C(=O)O)cc(-n3cc(-c4ccc(C(F)(F)F)cc4)nn3)c2)s1
- IC50 (P2Y purinoceptor 14): 9.33 µM

Compound: NS(=O)(=O)c1ccc(-c2cc(C(=O)O)cc(-n3cc(-c4ccc(C(F)(F)F)cc4)nn3)c2)cc1
- IC50 (P2Y purinoceptor 14): 0.608 µM
- Ki [6]: 3.26 µM

Compound: CCCNC(=O)c1ccc(-c2cc(C(=O)O)cc(-n3cc(-c4ccc(C(F)(F)F)cc4)nn3)c2)cc1
- IC50 (P2Y purinoceptor 14): 1.49 µM

Compound: NCCCCCCn1cc(CCCCN2CCC(c3ccc(-c4cc(C(=O)O)cc5cc(-c6ccc(C(F)(F)F)cc6)ccc45)cc3)CC2)nn1
- Ki [8]: 5.65 µM
- Ki [9]: 8.4 µM
- Ki [10]: 0.984 µM
- Ki [11]: 1.07 µM
- Ki (Histamine H2 receptor): 0.365 µM
- Ki [12]: 1.11 µM
- IC50 (P2Y purinoceptor 14): 0.0254 µM
- Ki [13]: 1.27 µM
- Ki (D(1A) dopamine receptor): 7.6 µM
- Ki [14]: 1.77 µM
- Ki (D(2) dopamine receptor): 8.21 µM
- Ki (D(3) dopamine receptor): 1.6 µM
- Ki [15]: 1.2 µM
- Ki [16]: 1.87 µM
- Ki [17]: 0.028 µM
- Ki (D(1B) dopamine receptor): 1.07 µM

Compound: CC(C)(C)OC(=O)NCCCCCCn1cc(CCCCN2CCC(c3ccc(-c4cc(C(=O)O)cc5cc(-c6ccc(C(F)(F)F)cc6)ccc45)cc3)CC2)nn1
- Ki [18]: 4.06 µM
- Ki [19]: 2.08 µM
- Ki (Translocator protein): 5.6 µM
- Ki (Histamine H2 receptor): 0.829 µM
- IC50 (P2Y purinoceptor 14): 0.133 µM
- Ki [20]: 7.9 µM
- Ki [17]: 5.28 µM
- Ki [21]: 2.36 µM

Compound: O=C(O)c1cc(Br)cc(-n2cc(-c3ccc(C(F)(F)F)cc3)nn2)c1
- IC50 (P2Y purinoceptor 14): 26.8 µM

Compound: O=C(O)c1cc(-c2ccc(S(=O)(=O)N3CCNCC3)cc2)cc(-n2cc(-c3ccc(C(F)(F)F)cc3)nn2)c1
- IC50 (P2Y purinoceptor 14): 1.64 µM

Compound: O=C(O)c1cc(-c2ccc(S(=O)(=O)N3CCNCC3)s2)cc(-n2cc(-c3ccc(C(F)(F)F)cc3)nn2)c1
- IC50 (P2Y purinoceptor 14): 1.51 µM

Compound: CC(=O)NCCCCCCn1cc(CCCCN2CCC(c3ccc(-c4cc(C(=O)O)cc5cc(-c6ccc(C(F)(F)F)cc6)ccc45)cc3)CC2)nn1
- IC50 (P2Y purinoceptor 14): 0.0835 µM
